# In EP1388586A2, “Identification of broadly reactive DR restricted epitopes” (priority 1998, dated 1999):
# Read-outs that look alike come from different tables or passages of the source. Ends that are not written are not given here. Peptide text beside a SMILES is read from it.
# Columns and labels:
# DRB1*0301 (DR3w17) = target: T1, DRB1*0301 (DR3w17) (Homo sapiens, UniProt P01903+P01911, A100K/A102G/A103R/A169T/F55Y/I96L/K41T/L162R/M171V/P40S/Q125H/Q178H/Q39Y/R42S/S66N/T106N/T262R/W38E/Y61H); experiment: Class II peptide-binding assay, DR3 (pH 4.5); conditions: Table VIII;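 further: unlabeled peptide competing with a radiolabeled probe peptide for binding to affinity-purified HLA-DR3, IC50 regarded as an approximation of Kd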
# T1 construct: used as sources of human HLA class II molecules; endogenous in cells; host or cells: MAT (EBV-transformed homozygous B cell line)
# DRB1*0101 (DR1) = target: T2, DRB1*0101 (DR1) (Homo sapiens, UniProt P01903+P01911, A100R/D57E/F55L/F60I/F76Y/I96L/L162R/M171V/P40L/Q125E/R42F/V115G/Y59C); experiment: Class II peptide-binding assay, DR1; conditions: read-out: In IC50 Format DR1; Table VIII;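 further: competition assay: unlabeled test peptides inhibit binding of a radiolabeled probe peptide to purified DR, with half-maximal inhibition taken as an approximate dissociation constant Kd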
# T2 construct: used as sources of human HLA class II molecules; endogenous in cells; host or cells: LG2 (EBV-transformed homozygous B cell line)
# DRB1*1101 (DR5w11) = target: T3, DRB1*1101 (DR5w11) (Homo sapiens, UniProt P01903+P01911, A100R/A169T/A87E/I96F/K41T/L162R/M171V/P40S/Q125H/Q178H/Q39Y/Q99D/R42S/S66Y/T262R/V115G/W38E); experiment: Class II peptide-binding assay, DR5w11; conditions: read-out: In IC50 Format DR5w11; Table VIII;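 further: competition by unlabeled test peptide against iodinated probe peptide binding to affinity-purified HLA-DR, class II amount titrated beforehand, half-maximal inhibitory concentration read as approximate Kd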
# T3 construct: used as sources of human HLA class II molecules; endogenous in cells; host or cells: SWEIG (EBV-transformed homozygous B cell line)
# DRB5*0101 (DR2w2a) = target: T4, DRB5*0101 (DR2w2a) (Homo sapiens, UniProt P01903+Q30154); experiment: Class II peptide-binding assay, DR2w2a (DR2w2B2); conditions: read-out: In IC50 Format DR2w2β2; Table VIII;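 further: competitive binding assay: unlabeled peptide inhibiting binding of a radiolabeled probe peptide to purified DR molecules at pH 7.0, IC50 approximating Kd, lower means stronger binding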
# T4 construct: used as sources of human HLA class II molecules; endogenous in cells; host or cells: GM3107 (EBV-transformed homozygous B cell line)
# DRB1*0701 (DR7) = DRB1*0701 (DR7) (Homo sapiens, UniProt P01903+P01911, A100R/A102G/A103Q/D57E/D86V/E43K/F76Y/K127E/L162R/M171V/P40G/Q125H/Q99D/R33Q/R42Y/R54Q/S133A/S66F/T210M/V115G/Y107V/Y59L/Y89S); experiment: Class II peptide-binding assay, DR7; conditions: read-out: In IC50 Format DR7; Table VIII;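 further: unlabeled peptides compete with an iodinated probe peptide for binding to affinity-purified HLA-DR at neutral pH, DR amount titered to bind a small tracer fraction, IC50 approximating Kd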
# DRB1*0401 (DR4w4) = target: T5, DRB1*0401 (DR4w4) (Homo sapiens, UniProt P01903+P01911, A100K/A169T/F76Y/I96L/K127E/L162R/M171V/N62H/P40V/Q125Y/R42H/S133A/S149N/S66Y/V115G/V209L/W38E); experiment: Class II peptide-binding assay, DR4w4; conditions: read-out: In IC50 Format DR4w4; Table VIII;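 further: unlabeled test peptides compete with a radiolabeled probe peptide for binding to affinity-purified HLA-DR, with DR amount titrated to capture a small fraction of label, IC50 approximating Kd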
# T5 construct: used as sources of human HLA class II molecules; endogenous in cells; host or cells: PREISS (EBV-transformed homozygous B cell line)
# Protocol: Class II peptide-binding assays. […] These assays were chosen as to be representative of the most common DR alleles.
# Radiolabeled peptides were iodinated using the chloramine-T method. […] In appropriate stoichiometric conditions, the IC50 of an unlabeled test peptide to the purified DR is a reasonable approximation of the affinity of interaction (Kd). Peptides were tested in two to four completely independent experiments. […] Final detergent concentration in the incubation mixture was 0.05% Nonidet P-40. Assays were performed at pH 7.0 with the exception of DR3, which was performed at pH 4.5, and DRw53, which was performed at pH 5.0.
# All subsequent inhibition and direct binding assays were the performed using these class II concentrations.
# [1] = read-out: In IC50 Format DR3 nM, values in parentheses read as lower bounds
# T1 sequence (P01903 26-254, other chains not shown): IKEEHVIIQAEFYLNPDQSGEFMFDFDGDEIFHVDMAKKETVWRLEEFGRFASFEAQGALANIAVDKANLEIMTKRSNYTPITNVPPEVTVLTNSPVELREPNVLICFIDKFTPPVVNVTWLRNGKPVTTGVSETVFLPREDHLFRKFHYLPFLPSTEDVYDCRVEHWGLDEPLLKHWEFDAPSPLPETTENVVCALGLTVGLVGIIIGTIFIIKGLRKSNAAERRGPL
# T3 sequence (P01903 26-254, other chains not shown): as above
compound,measurement,setting,value
CSCC[C@H](NC(=O)[C@H](CC(=O)O)NC(=O)[C@H](CC(C)C)NC(=O)[C@H](Cc1c[nH]cn1)NC(=O)[C@@H](NC(=O)[C@H](CCC(=O)O)NC(=O)[C@@H]1CCCN1C(=O)[C@H](CO)NC(=O)[C@H](C)NC(=O)[C@@H]1CCCN1C(=O)[C@H](CC(C)C)NC(=O)[C@@H](N)CCCNC(=N)N)[C@@H](C)O)C(=O)N[C@@H](CC(C)C)C(=O)N[C@@H](CCCNC(=N)N)C(=O)N[C@@H](Cc1c[nH]cn1)C(=O)O [Peptide 39.0338],IC50,DRB1*0301 (DR3w17); [1],> 111 µM
SLAFLPESFDGDPAS [Peptide 39.0349],IC50,DRB1*0301 (DR3w17); [1],> 111 µM
CC[C@H](C)[C@H](NC(=O)[C@H](CC(N)=O)NC(=O)[C@H](CCCCN)NC(=O)[C@H](Cc1ccccc1)NC(=O)[C@H](Cc1ccccc1)NC(=O)[C@H](Cc1c[nH]cn1)NC(=O)[C@@H](NC(=O)[C@@H](NC(=O)[C@@H]1CCCN1C(=O)[C@H](CC(N)=O)NC(=O)[C@H](CCC(=O)O)NC(=O)[C@H](CC(=O)O)NC(=O)[C@H](CCC(N)=O)NC(=O)[C@@H](NC(=O)[C@H](CCCNC(=N)N)NC(=O)CN)[C@@H](C)O)C(C)C)C(C)C)C(=O)N[C@H](C(=O)N[C@H](C(=O)N1CCC[C@H]1C(=O)N[C@@H](CCCNC(=N)N)C(=O)O)[C@@H](C)O)C(C)C [Peptide 507.02],IC50,DRB1*0101 (DR1),0.0172 µM
same,IC50,DRB1*1101 (DR5w11),0.133 µM
same,IC50,DRB5*0101 (DR2w2a),0.25 µM
same,IC50,DRB1*0701 (DR7),1 µM
same,IC50,DRB1*0301 (DR3w17); read-out: In IC50 Format DR3,60 µM
same,IC50,DRB1*0401 (DR4w4),0.0058 µM
SLSFLQDIQEVQGYV [Peptide 39.0339],IC50,"DRB1*0301 (DR3w17); values in parentheses read as lower bounds, read-out: In IC50 Format DR3",5.77 µM
FVVIQNEDLGPASPL [Peptide 39.0372],IC50,DRB1*0301 (DR3w17); [1],> 120 µM
CC[C@H](C)[C@H](N)C(=O)N[C@@H](Cc1c[nH]c2ccccc12)C(=O)N[C@@H](CCCCN)C(=O)N[C@@H](Cc1ccccc1)C(=O)N1CCC[C@H]1C(=O)N[C@@H](CC(=O)O)C(=O)N[C@@H](CCC(=O)O)C(=O)N[C@@H](CCC(=O)O)C(=O)NCC(=O)N[C@@H](C)C(=O)N[C@@H](CS)C(=O)N[C@@H](CCC(N)=O)C(=O)N1CCC[C@H]1C(=O)N[C@@H](CS)C(=O)N1CCC[C@H]1C(=O)O [Peptide 39.0358] (H-IWKFPDEEGACQPCP-OH),IC50,DRB1*0301 (DR3w17); [1],> 111 µM
CC(C)C[C@H](NC(=O)[C@H](CS)NC(=O)[C@H](Cc1c[nH]cn1)NC(=O)[C@H](CCCNC(=N)N)NC(=O)[C@H](C)NC(=O)[C@H](CC(N)=O)NC(=O)[C@@H](NC(=O)[C@H](Cc1ccc(O)cc1)NC(=O)[C@H](CCC(=O)O)NC(=O)[C@H](CCCNC(=N)N)NC(=O)[C@@H]1CCCN1C(=O)[C@H](CC(C)C)NC(=O)CNC(=O)[C@H](CCC(N)=O)NC(=O)[C@@H](N)CC(C)C)C(C)C)C(=O)O [Peptide 39.0355],IC50,DRB1*0301 (DR3w17); [1],> 111 µM
CSCC[C@H](NC(=O)[C@H](CC(=O)O)NC(=O)[C@H](CC(=O)O)NC(=O)[C@H](CC(=O)O)NC(=O)[C@H](CCC(=O)O)NC(=O)[C@H](CC(C)C)NC(=O)[C@H](CC(C)C)NC(=O)[C@H](CO)NC(=O)[C@@H](N)CCCNC(=N)N)C(=O)NCC(=O)N[C@@H](CC(=O)O)C(=O)N[C@@H](CC(C)C)C(=O)N[C@H](C(=O)N[C@@H](CC(=O)O)C(=O)N[C@@H](C)C(=O)O)C(C)C [Peptide 39.0374],IC50,DRB1*0301 (DR3w17); [1],37.5 µM
